According to US11013726B2 (Arbutus Biopharma Corporation, priority 2016, dated 2021):

System: HBsAg
Assay: HBsAg assay
Assay type: cell-based, hepatitis B virus
Conditions: Hepatitis B virus, HepG2.2.15, 144 h, read-out: sAg EC50, μM, HepG2.2.15 cells, day 6
Outline: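 HepG2.2.15 cells were treated with serially diluted compounds (0.5% DMSO), with medium and compound renewed after 2-3 days. Secreted HBsAg measured at day 6 by chemiluminescence immunoassay; EC50 from dose-response curves. Viability assessed in parallel by CellTiter-Glo.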

Row | SMILES | EC50 [µM]
1 | COCCCOc1cc2c(nc1OC)-c1cc(=O)c(C(=O)O)cn1C(C)(C(C)(C)C)C2 (centres unmarked) [Example 158, 6-(Tert-butyl)-2-methoxy-3-(3-methoxypropoxy)-6-methyl-10-oxo-5,10-dihydro-6H-pyrido[1,2-h][1,7]naphthyridine-9-carboxylic acid] | 0.001
2 | COc1cc2c(cc1Cl)-c1cc(=O)c(C(=O)O)cn1[C@@H](C(C)C)CO2 (single isomer, unassigned) [Example 4] | 3.4
3 | CC(C)(C)C1Cc2cc3c(cc2-c2cc(=O)c(C(=O)O)cn21)OCCCO3 (centres unmarked) [Example 90, 6-(Tert-butyl)-2-oxo-6,7,11,12-tetrahydro-2H,10H-[1,4]dioxepino[2,3-g]pyrido[2,1-a]isoquinoline-3-carboxylic acid] | 0.095
4 | CCc1cc2c(cc1OCC(C)C)OC[C@@H](C(C)C)n1cc(C(=O)O)c(=O)cc1-2 [Example 52, (R)-2-Ethyl-3-isobutoxy-7-isopropyl-11-oxo-6,7-dihydro-11H-benzo[f]pyrido[1,2-d][1,4]oxazepine-10-carboxylic acid] | 0.007
5 | COCCCOc1cc2c(nc1C1CC1)-c1cc(=O)c(C(=O)O)cn1[C@H](C(C)(C)C)CO2 [Example 67, (R)-7-(Tert-butyl)-2-cyclopropyl-3-(3-methoxypropoxy)-11-oxo-6,7-dihydro-11H-dipyrido[1,2-d:2′,3′-f][1,4]oxazepine-10-carboxylic acid] | 0.0009
6 | COCCCOc1cc2c(nc1OC)-c1cc(=O)c(-c3nc(-c4ccccc4)no3)cn1[C@H](C(C)C)C2 [Example 112, (S)-6-Isopropyl-2-methoxy-3-(3-methoxypropoxy)-9-(3-phenyl-1,2,4-oxadiazol-5-yl)-5,6-dihydro-10H-pyrido[1,2-h][1,7]naphthyridin-10-one] | 0.87
7 | COc1ccc2c(c1)OC[C@@H](C(C)C)n1cc(C(=O)O)c(=O)cc1-2 [Example 17, (R)-7-Isopropyl-3-methoxy-11-oxo-6,7-dihydro-11H-benzo[f]pyrido[1,2-d][1,4]oxazepine-10-carboxylic acid] | 0.88
8 | COc1cc2c(cc1Cl)-c1cc(=O)c(C(=O)O)cn1C1CCC1O2 (centres unmarked) [Example 13, 11-Chloro-10-methoxy-2-oxo-5a,6,7,7a-tetrahydro-2H-benzo[f]cyclobuta[b]pyrido[1,2-d][1,4]oxazepine-3-carboxylic acid] | 1.8
9 | COC1COc2cc3c(cc2OC1)-c1cc(=O)c(C(=O)O)cn1C(C(C)(C)C)C3 (centres unmarked) [Example 102, 6-(Tert-butyl)-11-methoxy-2-oxo-6,7,11,12-tetrahydro-2H,10H-[1,4]dioxepino[2,3-g]pyrido[2,1-a]isoquinoline-3-carboxylic acid] | 0.18
10 | COCCCOc1cc2c(cc1Cl)-c1cc(=NO)c(C(=O)O)cn1C(C(C)(C)C)C2 (centres unmarked) [Example 145, 6-Tert-butyl-10-chloro-2-(hydroxyimino)-9-(3-methoxypropoxy)-6H,7H-pyrido[2,1-a]isoquinoline-3-carboxylic acid] | 0.15
11 | COCCCOc1cc2c(nc1OC)-c1cc(=O)c(-c3nnco3)cn1[C@H](C(C)C)C2 [Example 110, (S)-6-Isopropyl-2-methoxy-3-(3-methoxypropoxy)-9-(1,3,4-oxadiazol-2-yl)-5,6-dihydro-10-pyrido[1,2-h][1,7]naphthyridin-10-one] | 0.057
12 | CC(C)[C@@H]1COc2cc(OCCCN3CCOCC3)c(Cl)cc2-c2cc(=O)c(C(=O)O)cn21 [Example 40, (R)-2-Chloro-7-isopropyl-3-(3-morpholinopropoxy)-11-oxo-6,7-dihydro-11H-benzo[f]pyrido[1,2-d][1,4]oxazepine-10-carboxylic acid] | 0.14
13 | CC(C)[C@@H]1COc2cc(N3CCOCC3)c(Cl)cc2-c2cc(=O)c(C(=O)O)cn21 [Example 62, (R)-2-Chloro-7-isopropyl-3-morpholino-11-oxo-6,7-dihydro-11H-benzo[f]pyrido[1,2-d][1,4]oxazepine-10-carboxylic acid] | 0.21
14 | COCCOc1cc2c(cc1Cl)-c1cc(=O)c(C(=O)O)cn1C(C(C)C)CO2 (centres unmarked) [Example 29, 2-Chloro-7-isopropyl-3-(2-methoxyethoxy)-11-oxo-6,7-dihydro-11H-benzo[f]pyrido[1,2-d][1,4]oxazepine-10-carboxylic acid] | 0.065
15 | COCCCOc1cc2c(nc1OC)-c1cc(=O)c(-c3nnn[nH]3)cn1[C@H](C(C)C)C2 [Example 115, (S)-6-Isopropyl-2-methoxy-3-(3-methoxypropoxy)-9-(1H-tetrazol-5-yl)-5,6-dihydro-10H-pyrido[1,2-h][1,7]naphthyridin-10-one] | 0.09
16 | CC(C)[C@@H]1COc2cc(OCCOCCBr)c(Cl)cc2-c2cc(=O)c(C(=O)O)cn21 [Example 41, (R)-3-(2-(2-Bromoethoxy)ethoxy)-2-chloro-7-isopropyl-11-oxo-6,7-dihydro-11H-benzo[f]pyrido[1,2-d][1,4]oxazepine-10-carboxylic acid] | 0.1
17 | COCCCOc1cc2c(nc1OC)-c1cc(=O)c(C(=O)NO)cn1[C@H](C(C)C)C2 [Example 117, (S)—N-Hydroxy-6-isopropyl-2-methoxy-3-(3-methoxypropoxy)-10-oxo-5,10-dihydro-6H-pyrido[1,2-h][1,7]naphthyridine-9-carboxamide] | 0.054
18 | COCCCOc1cc2c(nc1OC)-c1c(F)c(=O)c(C(=O)O)cn1[C@H](C(C)C)C2 [Example 26, (S)-11-Fluoro-6-isopropyl-2-methoxy-3-(3-methoxypropoxy)-10-oxo-5,10-dihydro-6H-pyrido[1,2-h][1,7]naphthyridine-9-carboxylic acid] | 0.002
19 | CC(C)COc1cc2c(nc1C1CC1)-c1cc(=O)c(C(=O)O)cn1[C@H](C(C)C)CO2 [Example 76, (R)-2-Cyclopropyl-3-isobutoxy-7-isopropyl-11-oxo-6,7-dihydro-11H-dipyrido[1,2-d:2′,3′-f][1,4]oxazepine-10-carboxylic acid] | 0.86
20 | COCC1(COC)COc2cc3c(cc2OC1)-c1cc(=O)c(C(=O)O)cn1C(C(C)(C)C)C3 (centres unmarked) [Example 99, 6-(Tert-butyl)-11,11-bis(methoxymethyl)-2-oxo-6,7,11,12-tetrahydro-2H,10H-[1,4]dioxepino[2,3-g]pyrido[2,1-a]isoquinoline-3-carboxylic] | 0.49

Same assay, conditions: read-out: sAg EC50; HepG2.2.15 cells, day 6

Row | SMILES | EC50 [µM]
21 | COc1cc2c(nc1OC)-c1cc(=O)c(C(=O)O)cn1C(C(C)C)C2 (single isomer, unassigned) [Example 25, 6-Isopropyl-2,3-dimethoxy-10-oxo-5,10-dihydro-6H-pyrido[1,2-h][1,7]naphthyridine-9-carboxylic acid] | 0.007
22 | COCCCOc1cc2c(nc1OC)-c1cc(=O)c(C(=O)O)cn1C(C)(C(C)C)C2 (single isomer, unassigned) [Example 157, 6-Isopropyl-2-methoxy-3-(3-methoxypropoxy)-6-methyl-10-oxo-5,10-dihydro-6H-pyrido[1,2-h][1,7]naphthyridine-9-carboxylic acid] | 0.11
23 | CC(C)(C)C1Cc2cc3c(cc2-c2cc(=O)c(C(=O)O)cn21)OCC1(COC1)CO3 (single isomer, unassigned) [Example 95, 6′-(Tert-butyl)-2′-oxo-6′,7′-dihydro-2′H,10′H,12′H-spiro[oxetane-3,11′-[1,4]dioxepino[2,3-g]pyrido[2,1-a]isoquinoline]-3′-carboxylic acid] | 0.08
